Tested on: bacteria and/or enzymes in the produced water
Experiment: Fann 50 viscosity test of guar or CMHPG gels prepared from pretreated oilfield produced water
Conditions: similar borate-crosslinked guar gels versus "as is" produced water
Protocol: Example of produced water treated with zirconyl chloride: Produced water PW4 was treated with 0.36 mL/L of zirconyl chloride solution M14. The mixture was stirred and then let stand for 30 minutes or more. Gels comprising borate-crosslinked guar were prepared with 8.8 mL/L M1, 6.0 mL/L M10, and 2.5 mL/L M11, in both the untreated and the M14-treated PW4 produced water. The viscosities of the fluids were tested with a Fann 50 viscometer.
Example of produced water treated with zirconium tetrachloride (ZTC): Produced water PW5-1 was treated with 1 mL/L of an aqueous solution of ZTC (containing an equivalent of 7.0 wt % ZrO2), stirred and then let stand for 1 day. Gels comprising borate-crosslinked guar were prepared with 8.8 mL/L M1, 6.0 mL/L M10 and 2.5 mL/L M11, using the treated (ES5) and untreated water (PW5-1, as is), and the viscosity of the fluids was tested with a Fann 50 viscometer at 93° C.
Examples of produced water treated with other inorganic heavy metal ions: Gels of borate-crosslinked guar were prepared from 8.8 mL/L M1, 6.0 mL/L M10 and 2.5 mL/L M11, added to two samples of BaCl2-treated PW6-1 produced water—0.28 g/L BaCl2 in ES6 and 3.4 g/L BaCl2 in ES7, followed by individual stirring for 30 minutes. […]

In the case of `[Cl][Cu][Cl]` [CuCl2], the “effect of produced water treatment on gel viscosity (in words)” value is reported as “did not obviously improve the viscosity”.
